Results: patent publication US20100280004A1, “SMALL MOLECULE CORRECTORS OF DELTAF508 CFTR TRAFFICKING” (The University of British Columbia and The Royal …, priority 2007, published 2010)

How the values were obtained:
[1] = target: T1, ΔF508 CFTR (Homo sapiens, UniProt P13569, DEL508-508); assay: Iodide efflux assay in CFBE cells expressing ΔF508-CFTR; type: cell-based; set-up: endogenous in cells; host or cells: CFBE cells (human lung epithelial cells from a CF patient); settings: CFBE cells (human lung epithelia of a cystic fibrosis patient); FIG. 5B
T1 sequence (P13569 with tags, fused parts or gaps DEL508-508): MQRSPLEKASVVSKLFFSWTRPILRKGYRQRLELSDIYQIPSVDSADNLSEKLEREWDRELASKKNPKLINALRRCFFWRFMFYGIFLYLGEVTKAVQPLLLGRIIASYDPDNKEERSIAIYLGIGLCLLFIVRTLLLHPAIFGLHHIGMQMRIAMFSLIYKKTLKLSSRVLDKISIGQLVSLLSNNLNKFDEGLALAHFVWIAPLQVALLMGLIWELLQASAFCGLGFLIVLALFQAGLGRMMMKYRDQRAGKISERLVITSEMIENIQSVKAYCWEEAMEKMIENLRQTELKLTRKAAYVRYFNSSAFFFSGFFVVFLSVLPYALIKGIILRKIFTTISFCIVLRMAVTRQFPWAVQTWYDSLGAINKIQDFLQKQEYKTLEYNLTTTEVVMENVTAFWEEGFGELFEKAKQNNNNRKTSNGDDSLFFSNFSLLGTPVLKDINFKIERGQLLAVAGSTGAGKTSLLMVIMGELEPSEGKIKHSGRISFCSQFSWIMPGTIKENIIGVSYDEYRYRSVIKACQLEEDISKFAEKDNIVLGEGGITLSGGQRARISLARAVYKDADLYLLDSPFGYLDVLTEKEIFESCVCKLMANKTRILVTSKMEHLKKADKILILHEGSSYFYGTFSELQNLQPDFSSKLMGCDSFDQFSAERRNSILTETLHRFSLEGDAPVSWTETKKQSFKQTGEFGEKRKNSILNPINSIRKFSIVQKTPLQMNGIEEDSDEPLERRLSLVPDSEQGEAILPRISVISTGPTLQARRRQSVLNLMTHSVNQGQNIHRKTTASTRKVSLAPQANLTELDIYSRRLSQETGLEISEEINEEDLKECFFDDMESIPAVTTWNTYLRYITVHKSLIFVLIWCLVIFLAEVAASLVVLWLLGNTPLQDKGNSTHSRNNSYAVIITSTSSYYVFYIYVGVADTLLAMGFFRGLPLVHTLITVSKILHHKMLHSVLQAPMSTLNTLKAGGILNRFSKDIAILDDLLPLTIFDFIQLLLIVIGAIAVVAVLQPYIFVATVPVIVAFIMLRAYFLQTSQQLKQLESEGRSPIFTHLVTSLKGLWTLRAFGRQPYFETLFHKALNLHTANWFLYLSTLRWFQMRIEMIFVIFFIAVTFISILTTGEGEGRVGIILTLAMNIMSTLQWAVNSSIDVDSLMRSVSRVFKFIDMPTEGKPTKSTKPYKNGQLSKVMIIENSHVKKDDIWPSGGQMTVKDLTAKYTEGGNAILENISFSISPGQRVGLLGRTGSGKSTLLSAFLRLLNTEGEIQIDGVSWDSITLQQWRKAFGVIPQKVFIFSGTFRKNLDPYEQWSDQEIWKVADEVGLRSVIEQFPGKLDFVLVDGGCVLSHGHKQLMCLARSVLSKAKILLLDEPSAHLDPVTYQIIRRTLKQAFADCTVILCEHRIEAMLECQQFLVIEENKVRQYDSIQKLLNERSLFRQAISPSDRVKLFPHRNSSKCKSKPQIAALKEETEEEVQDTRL
Experimental: Experiments were performed by hand or with a robotic liquid handling system (BioRobot 8000, Qiagen, USA) using Qiagen 4.1 software. Cells were cultured in 24-well plates until they reached confluence in order to perform parallel experiments and comparison analysis. After treatment or not with a test compound, the medium of each well was replaced with 1 ml of iodide loading buffer (in mM: 136 NaI, 3 KNO3, 2 Ca(NO3)2, 11 glucose and 20 Hepes pH 7.4) for 1 hour at 37° C. to permit the I− to reach equilibrium. At the beginning of each experiment, the loading buffer was removed by aspiration and cells were washed eight times with efflux buffer (same as loading buffer except that NaI was replaced with 136 mM NaNO3) to remove extracellular I^− in each well. The loss of intracellular I^− was determined by removing the medium with efflux buffer every 1 min for up to 11 min. The first four aliquots were recovered at 1-minute intervals in an empty 24-well plate and used to establish a stable baseline in efflux buffer alone. […] The iodide concentration of each aliquot was determined using an iodide-sensitive electrode (Orion Research Inc., Boston, Mass., USA or Ecomet) and converted to iodide content (i.e. the amount of iodide released during the 1 min interval). […]

[2] = target: T1, ΔF508 CFTR; assay: Screening protocol: surface expression of 3HA-tagged ΔF508 CFTR in BHK cells (anti-HA immunofluorescence plate assay); type: cell-based; set-up: expressed in transfected cells; host or cells: BHK cells; settings: for EC50: concentrations between 100 μM and 1 pM, FIG. 2
Experimental: BHK cells expressing 3HA-tagged ΔF508 CFTR between passages 5-8 were seeded in 96-well plates (Corning half area, black-sided, clear bottom) at 15,000 cells per well and incubated with culture medium for 24 h at 37° C. […] The remaining 16 wells on each plate were used for control conditions. Cells were fixed in a 2% Para-formaldehyde solution, washed with PBS, and blocked with PBS containing 5% fetal bovine serum (FBS) for 1 h at 4° C.
Blocking solution was replaced with 15 μl of primary antibody solution containing 1% FBS and mouse monoclonal anti-HA antibody (1:150 dilution, Sigma) in PBS. The plates were sealed and left at 4° C. overnight. After three washes with 100 μl PBS, cells were incubated for 1 h with 15 μl of secondary antibody solution containing 1% FBS and anti-mouse IgG conjugated with FITC (1:100 dilution, Sigma) in PBS. Cells were again washed three times with 100 μl of PBS and analyzed in a plate reader (Analyst™ HT96.384, Biosystems) (488 nm excitation, 510 nm emission). Hits were defined as those compounds giving fluorescence at least three standard deviations higher than untreated controls. The mean fluorescence of four untreated wells was used as the background signal when calculating deviations of the 80 compound-treated wells. Hits were then cherry-picked into reservoir plates and re-tested in duplicate using the same assay. Compounds that consistently give signals that were three standard deviations above untreated controls and were not intrinsically fluorescent were considered validated and studied further.

[3] = target: T2, F508del-CFTR (Homo sapiens, UniProt P13569, DEL508-508); assay: Immunofluorescence/confocal microscopy: cell surface CFTR (overlap with wheat germ agglutinin) in BHK cells expressing F508del-CFTR; type: cell-based; settings: 10 μM, 24 hours, FIG. 3
T2 construct: expressed in transfected cells; host or cells: BHK cells
T2 sequence (P13569 with tags, fused parts or gaps DEL508-508): as above
Experimental: BHK cells expressing F508del-CFTR were treated with 10 μM of the latonduines for 24 hours and then immunostained for CFTR and imaged by confocal microscopy (photomicrograph data not shown).
Cells were seeded onto 1 cm diameter glass coverslips (5000 per coverslip) and incubated overnight, then treated with compound and fixed in 2% Para formaldehyde. After fixation, cells were blocked using (5% FBS in PBS) for 1 hour at 4° C. The coverslips were then washed in PBS and incubated with primary antibody solution (1% FBS in PBS with 1:200 dilution mouse anti-CFTR antibody (Chemicon) for 2 hours at room temperature (0.05% Tween-20 was added to the blocking solution when staining of intracellular CFTR was required). Coverslips were washed four times in PBS and probed with secondary antibody solution (1% FBS in PBS plus goat anti-mouse Alexa 568 conjugated antibody at 1:1000 dilution) for 1 h at room temperature in the dark. The cells were then washed three times with PBS. The coverslips were then mounted on slides using an antifade mounting solution (Permamount) for confocal microscopy.
Analysis was done using the ImageJ system using 120-150 cells per sample in six fields. […]
The cell surface was identified using wheat germ agglutinin and the amount of cell surface CFTR measured (FIG. 3). […]

[4] = tested on: panel of human cancer lines; assay: Cytotoxicity assays against a panel of human cancer lines; type: cell-based
[5] = tested on: panel of protein kinases; assay: Enzyme inhibition against a panel of protein kinases; type: biochemical
[6] = target: T1, ΔF508 CFTR; assay: Immunoblotting analysis of biosynthetic processing of ΔF508-CFTR in BHK cells; type: cell-based; set-up: expressed in transfected cells; host or cells: BHK cells
Experimental: The effects of the latonduines on the biosynthetic processing of ΔF508-CFTR, latonduine treatment was assayed by immunoblotting analysis (FIGS. 4A and B).
Cell lysates were quantitated by Bradford assay (BioRad) and separated by SDS-PAGE (6% polyacrylamide gels) and analyzed by Western blotting. Western blots were blocked using 5% skimmed milk in PBS, then were probed overnight at 4° C. with a primary anti-CFTR antibody at a dilution of 1:1000 monoclonal mouse antibody (Chemicon). The blots were washed four times in PBS before the addition of the secondary HRP-conjugated anti-mouse antibody, at a dilution of 1:5000 (Amersham) for one hour at room temperature. The blots were washed five times in PBS and probed for chemiluminescence (Pierce). All samples were run with equal protein loading as determined using the Bradford assay (Biorad). Densitometry of the immunoblots were performed using the ImageJ program.

EC50 [2] [nM] | cell surface CFTR, % of the amount of wild-type CFTR plasma membrane signal [3] [%] | enzyme inhibition [5] | response in the screening protocol (surface expression of ΔF508 CFTR) ([2]; 24-hour treatment, 10 μM, FIGS. 1 and 6) | surface expression, % of that observed in cells expressing wild-type CFTR ([6]; F508del-CFTR, stated in Example III) | share of F508del-CFTR that was complex-glycosylated ([6]; cells treated with the compound, densitometry of immunoblot) | Structure (SMILES) | functional ΔF508-CFTR ion channels, iodide efflux [1] | cytotoxicity [4]
0.5 | 51 | inactive | – | – | – | CCOC(=O)c1nc(N)nc2c1-c1c([nH]c(Br)c1Br)C(=O)NC2 [latonduine B ethyl ester] | can act as correctors of ΔF508-CFTR giving functional ion channels on the cell surface | inactive
– | – | – | positive response | – | – | Nc1ncc2c(n1)-c1c([nH]c(Br)c1Br)C(=O)NC2 [isolatonduine] | – | –
0.4 | 29 | inactive | – | about 25% | Up to 30% | Nc1ncc2c(n1)CNC(=O)c1[nH]c(Br)c(Br)c1-2 [latonduine A] | – | inactive
25 | – | inactive | – | – | – | COC(=O)c1nc(N)nc2c1-c1c([nH]c(Br)c1Br)C(=O)NC2 [latonduine B methyl ester] | – | inactive
– | – | inactive | – | – | – | Nc1nc2c(c(C(=O)O)n1)-c1c([nH]c(Br)c1Br)C(=O)NC2 [latonduine B] | – | inactive
